Assay results from patent US7153873B2, “Salts of bicyclic, N-acylated imidazo-3-amines and imidazo-5-amines” (Gruenenthal GmbH, priority 2000, dated 2006).

Target: T1, μ-opiate receptor (Rattus norvegicus, UniProt P33535)
T1 construct: homogenate of rat brain without cerebellum, pons and medulla oblongata of male Wistar rats; from tissue; host or cells: rat brain (without cerebellum, pons and medulla oblongata), male Wistar rats, membrane homogenate
Assay: μ-Opiate receptor binding investigations on rat brain membrane homogenates with tritiated naloxone
Details: 10 μM compound; rat brain membrane homogenate (male Wistar rats); 1 nmol/l tritiated naloxone as radioactive ligand; read-out: μ-affinity % inhibition 10 μM
Method: μ-Opiate Receptor Binding Investigations
Investigations to determine the affinity of the compounds of Formula I according to the invention for the μ-opiate receptor were carried out on brain membrane homogenates (homogenate of rat brain without cerebellum, pons and medulla oblongata of male Wistar rats).
For this purpose, the respective freshly prepared rat brain was homogenized in 50 mmol/l tris-HCl (pH 7.4) with ice cooling and was centrifuged for 10 minutes at 5,000 g and 4° C. After decanting and rejection of the supernatant, retrieval and homogenisation of the membrane sediment in 50 mmol/l tris-HCl (pH 7.4), the homogenate was then centrifuged for 20 minutes at 20,000 g and 4° C. This washing stage was repeated several times. The supernatant was then decanted and the membrane sediment homogenized in cold 50 mmol/l tris-HCl, 20% glycerol (w/v), 0.01% Bactitracin (w/v) (pH 7.4) and frozen in aliquots until testing. To test receptor binding, the aliquots were thawed and diluted 1:10 with the binding test buffer.
In the binding test, a 50 mmol/l tris-HCl, 5 mmol/l MgCl (pH 7.4) was used as buffer and 1 nmol/l tritiated naloxone as radioactive ligand.

T1 sequence (P33535 whole entry): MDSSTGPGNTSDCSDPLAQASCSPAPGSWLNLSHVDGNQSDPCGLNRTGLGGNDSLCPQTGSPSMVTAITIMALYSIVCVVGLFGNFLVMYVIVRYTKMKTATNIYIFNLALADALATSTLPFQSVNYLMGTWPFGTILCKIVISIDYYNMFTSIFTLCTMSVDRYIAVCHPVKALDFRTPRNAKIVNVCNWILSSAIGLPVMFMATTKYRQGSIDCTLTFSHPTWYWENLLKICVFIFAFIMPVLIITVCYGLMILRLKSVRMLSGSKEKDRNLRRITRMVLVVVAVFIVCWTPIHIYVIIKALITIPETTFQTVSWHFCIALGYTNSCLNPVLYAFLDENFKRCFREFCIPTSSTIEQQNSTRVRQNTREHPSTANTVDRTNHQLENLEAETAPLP

Structure (SMILES)	inhibition at 10 µM [%]
CC(=O)[n+]1c(-c2ccccc2)c(NC(C)(C)C)n2ccsc21 [Example 4, 7-acetyl-5-tert-butylamino-6-phenyl-imidazo[2,1-b]-thiazol-7-ium chloride]	90
CC(=O)[n+]1c(-c2ccccc2)c(NC2CCCCC2)n2c3ccccc3ccc21 [Example 5, 3-acetyl-1-cyclohexylamino-2-phenyl-imidazo[1,2-a]-quinolin-3-ium chloride]	79
CC(=O)[n+]1c(-c2ccccc2)c(NC2CCCCC2)n2cccnc21 [Example 6, 1-acetyl-3-cyclohexylamino-2-phenyl-imidazo[1,2-a]-pyrimidin-1-ium chloride]	53
CC(=O)[n+]1c(C)c(NC2CCCCC2)n2cccc(OCc3ccccc3)c21 [Example 7, 1-acetyl-8-benzyloxy-3-cyclohexylamino-2-methyl-imidazo[1,2-a]pyridin-1-ium chloride]	91
CC(=O)[n+]1c(C)c(NC(C)(C)C)n2cccc(OCc3ccccc3)c21 [Example 8, 1-acetyl-8-benzyloxy-3-tert-butylamino-2-methyl-imidazo[1,2-a]pyridin-1-ium chloride]	98
